The source of these data is patent US20260015352A1, “METHYLTRANSFERASE INHIBITOR AND USE THEREOF” (CYTOSINLAB THERAPEUTICS CO., LTD., priority 2022, published 2026).

For this assay, the system named is G401 cells. The experiment in a line: G401 ELISA test. To be noted: Homo sapiens, G-401; G401 cells treated with compounds for 72 hours; ELISA detecting K27 and H3; read-out: G401_ELISA IC50. The assay is classed as cell-based. The method, then:
• Plate Reader: Envision (Perkinelmner); plate shaker: IKA MTS 2/4; plate Washer: BioTek microplate wisher 405 select; Cell counter: Counterstar (Ruiyu-biotech); Cell culture incubator: MCO-15AC (ThermoFisher); Pipette: BioHit Multichannel. Pipette: 0.2-10 μL, 10-300 μL, 50-1200 μL; Centrifuge: Thermo Centrifuge ST 40R; Pure water system: Millipore Milli-Q Reference system; Refrigerator: Haier −80 degree, −20 degree, and 4-degree refrigerators; cell cryopreservation box: Mr. Frosty™ Gradient Cooling Box Cat #5100-0001
• McCoys 5A (Modified) culture medium (ATCC); FBS (Gibco); 0.25% Trypsin/EDTA (Gibco); PBS (Hyclone); Penicillin/Streptomycin(100×) (Gibco); DMSO (Sigma); 384 cell culture plate (Corning); 384 detection plate (Greiner); 96 well plate (compound dilution) (Haimen, Qunchao); T75 Cell Culture Bottle (Corning)
G401 cells were seeded in a 384-well cell culture plate and incubated overnight at 37° C. in a 5% CO2 cell culture incubator, after which the cells were treated with compounds of different concentrations for 72 hours. The 384-well cell culture plate was taken out and upside down in a centrifuge to centrifugeat 300 rpm for 1 minute. After centrifugation, the 384-well cell culture plate was washed twice with PBS, added with lysis solution and lysed for 60 minutes. Then neutralization buffer was added for mixing and incubation was continued for 30 minutes. 20 ul (for detecting K27) and 10 ul (for detecting H3) of cell lysate were extracted from the 384-well cell culture plate and transferred to a 384 ELISA detection plate and incubate overnight at 4° C. The next day, the 384 ELISA plate was taken out and washed 5 times with TBST in a microplate washer. Then, the plate was added with a blocking solution and sealed at room temperature for 1 hour. The blocking solution was discarded and the primary antibody was added and then the plate was incubated at room temperature for 1 hour. After incubation, the plate was washed with TBST 5 times in a microplate washer, then added with secondary antibody and incubated at room temperature for 1 hour. After incubation, the plate was washed with TBST 5 times in a microplate washer, and finally added with color developer for color development. The plate was read with Envision plate reader. The obtained data was converted into inhibition rate using the following calculation method: % Inhibition rate=100−100*(compound absorbance−positive control absorbance)/(negative control absorbance−positive control absorbance), and then the inhibition rate data was subjected to curve fitting using the “logarithmic (inhibitor) and reaction-variable slope (four parameters)” model in GraphPad Prism 5 software.
The inhibition rate of the compound was calculated as follows: […]
The compounds of the present invention were tested according to the above experimental method, and some results were shown in Table 3. The test results were classified by A, B, and C, wherein A represents IC50≤0.1 uM; B represents 0.1 uM<IC50≤1 uM; C represents IC50>1 uM

In general, IC50 refers to the midpoint of a concentration-inhibition curve. With `COc1nccc2ccc(NC34CCC([C@H](C)Nc5ncc(C(C)C(=O)NC6COC6)cn5)(CC3)CC4)nc12` (stereo partly shown) [PA168], the IC50 was not above 100 nM.

In the case of `COc1nccc2ccc(Nc3ccc([C@H](C)Nc4ncc(CC(=O)NCCC#N)cn4)cc3F)nc12` [PA200], the IC50 was not above 100 nM.

On to `COc1cccc2ccc(Nc3ccc(CNc4ncc(CC(=O)NC5COC5)cn4)cc3F)nc12` [PA197], for which the IC50 was not above 100 nM.

In the case of `COc1nccc2ccc(Nc3ccc([C@H](C)Nc4c(F)cc(CNC5CS(=O)(=O)C5)cc4F)cc3F)nc12` [PA241], the IC50 was in the range of 100 to 1000 nM.

Turning to `COc1nccc2ccc(Nc3ccc(CNc4ncc(N5CCC(OC)C5)cn4)cc3F)nc12` (stereo not shown) [PA244], the IC50 is more than 1000 nM.

In the case of `O=C(Cc1cnc(NCC23CCC(Nc4ccc5cccc(Cl)c5n4)(CC2)CC3)nc1)NC1COC1` [PA263], the IC50 is not above 100 nM.

In the case of `CC(C(=O)NC1COC1)c1cnc(N[C@@H](C)C23CCC(Nc4ccc5ccnc(Cl)c5n4)(CC2)CC3)nc1` (stereo partly drawn) [PA169, 2-(2-(((S)-1-(4-((8-chloro-1,7-naphthyridin-2-yl)amino)bicyclo[2.2.2]octan-1-yl)ethyl)amino)pyrimidin-5-yl)-N-(oxetan-3-yl)propanamide], the IC50 was not above 100 nM.

For the molecule `C[C@H](Nc1ncc(CC2CCS(=O)(=O)CC2)cn1)C12CCC(Nc3ccc4ccnc(Cl)c4n3)(CC1)CC2` [PA187], the IC50 was not above 100 nM.

Consider `COc1nccc2ccc(Nc3ccc([C@H](C)Nc4ncc(CC(=O)N(CCC#N)C5COC5)cn4)cc3F)nc12` [PA185], for which the 50% inhibitory concentration (IC50) is not above 100 nM.

On to `O=C(Cc1cnc(NCc2ccc(Nc3ccc4c(Cl)nccc4n3)cc2)nc1)NC1COC1` [PA243], for which the 50% inhibitory concentration (IC50) was more than 1000 nM.

Turning to `COc1nccc2ccc(Nc3ccc([C@H](C)Nc4ncc(CNC5CS(=O)(=O)C5)cn4)cc3F)nc12` [PA172], the IC50 was not above 100 nM.

With `COc1nccc2ccc(Nc3ccc(CNc4ncc(CC(=O)NC5COC5)cn4)cc3)cc12` [PA066], the IC50 is more than 1000 nM.

`COc1nccc2ccc(Nc3ccc(CNc4ncc(CC(=O)NC5COC5)cn4)cc3)nc12` [PA001]: the IC50 is not above 100 nM.

As for `C[C@H](Nc1ncc(CNC2CS(=O)(=O)C2)cn1)C12CCC(Nc3ccc4ccnc(Cl)c4n3)(CC1)CC2` [PA165], the concentration for half-maximal inhibition (IC50) is not above 100 nM.

As for `COc1nccc2ccc(NC34CCC(CNc5ncc([C@H](C)C(=O)NC6COC6)cn5)(CC3)CC4)nc12` [PA078], the IC50 fell in the range of 100 to 1000 nM.

`CC(C(=O)NCCC#N)c1cnc(N[C@@H](C)C23CCC(Nc4ccc5ccnc(Cl)c5n4)(CC2)CC3)nc1` (stereo partly shown) [PA191]: the IC50 is not above 100 nM.

On to `COc1nccc2ccc(Nc3ccc(CNc4ccc(CC(=O)NC5COC5)nc4)cc3)nc12` [PA082], for which the IC50 is more than 1000 nM.

Turning to `COc1nccc2ccc(Nc3ccc([C@H](C)Nc4ncc(CC(=O)NC5COC5)cn4)cc3F)nc12` [PA193], the IC50 was not above 100 nM.

Take `CNC(=O)C(NC1CS(=O)(=O)C1)c1cnc(N[C@@H](C)C23CCC(Nc4ccc5ccnc(Cl)c5n4)(CC2)CC3)nc1` (stereo partly shown) [PA162]: the IC50 is not above 100 nM.

For the molecule `COc1nccc2ccc(Nc3ccc(CNc4ncc(CC(N)=O)cn4)cc3F)nc12` [PA231], the IC50 lay within 100 to 1000 nM.

Regarding `COc1nccc2ccc(Nc3ccc([C@H](C)Nc4ncc(N5CC(C#N)C5)cn4)cc3F)nc12` [PA206], the IC50 is not above 100 nM.

`COc1nccc2ccc(Nc3ccc([C@H](C)Nc4ncc(CNC5CC(C#N)C5)cn4)cc3F)nc12` (stereo partly shown) [PA196]: the 50% inhibitory concentration (IC50) was not above 100 nM.

As to `O=C(Cc1cnc(NCc2ccc(Nc3ccc4cccnc4n3)cc2)nc1)NC1COC1` [PA051], the IC50 was more than 1000 nM.

Regarding `Cc1ccc2ccc(NC34CCC([C@H](C)Nc5ncc(CNC6CS(=O)(=O)C6)cn5)(CC3)CC4)nc2c1Cl` [PA179], the IC50 was not above 100 nM.

As to `COc1nccc2cnc(Nc3ccc(CNc4ncc(CC(=O)NC5COC5)cn4)cc3)nc12` [PA254], the half-inhibitory concentration (IC50) was more than 1000 nM.

For the molecule `COc1nccc2ccc(Nc3ccc([C@@H](C)Nc4ncc(CC(=O)NC5COC5)cn4)cc3)nc12` (single isomer, unassigned) [PA062, 2-(2-((1-(4-((8-methoxy-1,7-naphthyridin-2-yl)amino)phenyl)ethyl)amino)pyrimidin-5-yl) acetic acid N-(oxetan-3-yl) acetamide], the IC50 fell in the range of 100 to 1000 nM.

Regarding `COc1nccn2cc(Nc3ccc(CNc4ncc(CC(=O)NC5COC5)cn4)cc3)nc12` [PA253], the half-maximal inhibitory concentration (IC50) was more than 1000 nM.

In the case of `COc1nccc2ccc(Nc3ccc(CNc4ncc(CC(=O)NC5COC5)cn4)c(F)c3)nc12` [PA034], the IC50 was not above 100 nM.

For `C[C@H](Nc1ncc(CNCCC#N)cn1)C12CCC(Nc3ccc4ccnc(Cl)c4n3)(CC1)CC2` [PA170], the half-maximal inhibitory concentration (IC50) was not above 100 nM.

Consider `COCCNCc1cnc(NCc2ccc(Nc3ccc4ccnc(OC)c4n3)c(F)c2)nc1` [PA247], for which the IC50 was more than 1000 nM.

Turning to `COc1nccc2ccc(Nc3ccc(CNc4ncc(CC(=O)N5CCOCC5)cn4)cc3F)nc12` [PA226], the IC50 lay within 100 to 1000 nM.

`COc1nccc2ccc(Nc3ccc([C@H](C)Nc4ncc(CC(=O)NC5CS(=O)(=O)C5)cn4)cc3F)nc12` [PA212]: the IC50 was 100 to 1000 nM.

With `COc1nccc2ccc(Nc3ccc([C@H](C)Nc4ncc([C@@H](C)C(=O)NC5COC5)cn4)cc3F)nc12` [PA225], the half-maximal inhibitory concentration (IC50) lay within 100 to 1000 nM.

On to `C[C@H](Nc1ncc(C(NC2CS(=O)(=O)C2)C(=O)OC(C)(C)C)cn1)C12CCC(Nc3ccc4ccnc(Cl)c4n3)(CC1)CC2` (stereo partly shown) [PA257], for which the IC50 was not above 100 nM.

Regarding `COc1nccc2ccc(Nc3ccc(CNc4ncc(CNC5COC5)cn4)cc3)nc12` [PA154], the IC50 is 100 to 1000 nM.

Consider `COc1nccc2ccc(Nc3ccc([C@H](C)Nc4ncc(/C=C/C5CCS(=O)(=O)CC5)cn4)cc3F)nc12` [PA210], for which the IC50 lay in the range of 100 to 1000 nM.

On to `COc1nccc2ccc(Nc3ccc([C@H](C)Nc4ncc(CCc5cc(C#N)n[nH]5)cn4)cc3F)nc12` [PA219], for which the IC50 is 100 to 1000 nM.

As for `COc1nccc2ccc(Nc3ccc([C@H](C)Nc4ncc(CCc5cc(C(N)=O)n[nH]5)cn4)cc3F)nc12` [PA245], the 50% inhibitory concentration (IC50) was more than 1000 nM.

As to `COc1nccc2ccc(Nc3ccc([C@H](C)Nc4ncc(N5CC(CC#N)C5)cn4)cc3F)nc12` [PA199], the IC50 is not above 100 nM.

On to `COc1nccc2ccc(Nc3ccc(CNc4ncc([C@H](C)C(=O)NC5COC5)cn4)cc3)nc12` (single isomer, unassigned) [PA042, 2-[2-[[4-[(8-methoxy-1,7-naphthyridin-2-yl)amino]phenyl]methylamino]pyrimidin-5-yl]-N-(oxetan-3-yl) propanamide], for which the 50% inhibitory concentration (IC50) was not above 100 nM.

In the case of `COCCNC(=O)Cc1cnc(NCc2ccc(Nc3ccc4ccnc(OC)c4n3)cc2)nc1` [PA152], the IC50 is 100 to 1000 nM.

`COc1nccc2ccc(Nc3ccc([C@H](C)Nc4ncc(C(C)NC5CS(=O)(=O)C5)cn4)cc3F)nc12` (stereo partly shown) [PA163]: the IC50 is not above 100 nM.

As to `COc1nccc2ccc(Nc3ccc(CNc4ncc(CNCC5CCOCC5)cn4)cc3F)nc12` [PA252], the IC50 is more than 1000 nM.

In the case of `COc1nccc2ccc(Nc3ccc(CNc4ncc(CN5CCC(O)CC5)cn4)cc3F)nc12` [PA227], the concentration for half-maximal inhibition (IC50) is 100 to 1000 nM.

As to `Cc1ccc2ccc(Nc3ccc([C@H](C)Nc4ncc(CN(CCO)C5CS(=O)(=O)C5)cn4)cc3F)nc2c1Cl` [PA266], the IC50 was not above 100 nM.

`COc1nccc2ccc(Nc3ccc([C@H](C)Nc4ncc(CCN(C)C5CC(F)(F)C5)cn4)cc3F)nc12` [PA235]: the IC50 is 100 to 1000 nM.
